From PubChem BioAssay AID2060325 (Molecular Pharmacology Branch, DTP, NCI, 2025)

Test system: SK-OV-3 multi-cell spheroids, viability
Assay: Anticancer human tumor SK-OV-3 cell line growth inhibition [IpAb];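 as to viability, T/C: viability read after seven days of drug exposure; percent of DMSO vehicle control luminescence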
Conditions: for IC50: curve of first compound; for viability, T/C: stronger effect = lower value; active = viability on the fitted dose curve at most 10% of control; inactive = the rest
Description: Combinatorial screen of targeted agents with ipatasertib and abemaciclib in multi-cell type tumor spheroids
A high-throughput screen of multi-cell type tumor spheroids was designed to identify active combinations of targeted small molecules and ipatasertib or abemaciclib. Complex spheroids include a stromal component modeled by human endothelial cells (HUVEC) and fibroblasts modeled by human mesenchymal stem cells (MSCs). The concentration ranges selected for each drug and investigational agent were based upon clinically achievable concentrations if the clinical Cmax of the agent was known.
Compounds. The drugs and investigational agents: ipatasertib (NSC767898), abemaciclib(NSC768073), selumetinib (NSC741078), trametinib (758246), adavosertib (NSC754352), everolimus (NSC733504), sapanisertib (NSC764658), vemurafenib (NSC761431), venetoclax (NSC766270), copanlisib (NSC809693), apelisib (NSC765974), palbociblib (NSC758247), vemurafenib (NSC761431), dabrafenib (NSC764134), ravoxertinib (NSC781343), BMS-387032 (NSC767048), sotorasib (NSC818433), talazoparib (NSC767125) and afursertib (NSC778305), were obtained from the National Cancer Institute (NCI) Developmental Therapeutics Program Chemical Repository. The FDA-approved anticancer drug set is available from the NCI Developmental Therapeutics Program. […] The stock solutions were prepared in dimethyl sulfoxide (DMSO, Sigma-Aldrich, St. Louis, MO, cat. D2650) at 800-fold the tested concentration and stored at -70 degrees C prior to their use. All drugs and investigational agents were tested over a range starting from a high concentration at or near the clinical Cmax and decreasing in half-log increments. If the clinical Cmax for an agent had not been determined, the highest concentration tested was 10 microM.
NCI60 Cell Culture. NCI60 cell lines were obtained from the NCI Developmental Therapeutics Program Tumor Repository. For each lot of cells, the Repository performed Applied Biosystems AmpFLSTR Identifiler testing with PCR amplification to confirm consistency with the published Identifier STR profile for each cell line. Cells were kept in continuous culture for no more than 20 passages. The optimal seeding densities for each of the cell lines at each time point assessed were determined prior to performing the concentration response studies. Briefly, the NCI60 human tumor lines were grown as monolayers in RPMI 1640 medium supplemented with 10% FBS and 2 mmol/L L-glutamine.
An additional 9 lines were from the NCI60 cell line panel including MDA-MB-231 breast carcinoma, MDA-MB-468 breast carcinoma, MCF7 breast carcinoma, Hs578T breast carcinoma, MALME-3M melanoma, SK-MEL-2 melanoma, SK-OV-3 ovarian carcinoma, DU-145 prostate carcinoma, PC-3 prostate carcinoma, all cell lines along with major genetic alterations are listed on Table 2. Pooled donor human umbilical vein endothelial cells (HUVEC, Lonza, cat. CC-2519) and human mesenchymal stem cells (hMSC, Lonza, cat. PT-2501) were purchased from Lonza (Walkersville, MD).
PDMR cell lines were grown in complete medium (DC medium): Dulbecco's modified Eagle's medium (DMEM)/F12 supplemented with 5% fetal bovine serum (FBS), 2 mM L-glutamine, 100 U/mL penicillin and 100 µg/ml streptomycin, 0.4 µg/ml hydrocortisone, 10 ng/ml epidermal growth factor (EGF) recombinant human protein, 24 µg/mL adenine, and 0.1 mg/mL primocin. During culture from frozen stock vials, PDMR cells were cultured in the same medium containing 10 µM Y-27632 (see Table 3). The PDCs were cultured in complete DMEM/F12 media without 10 microM Y-27632 dihydrochloride for at least two passages prior to the screen. The pooled donor HUVEC and hMSC were cultured in endothelial cell growth medium 2 (PromoCell, Heidelberg, Germany, cat. C-22011) and mesenchymal stem cell growth medium 2 (PromoCell, cat. C-28009), respectively. For all experiments, HUVEC and hMSC were used at passages </=5.
[…]

[1] = second compound 0.1 µM, first compound 0.0316 µM
[2] = second compound 0.1 µM, first compound 0.1 µM
[3] = second compound 0.1 µM, first compound 0.316 µM
[4] = second compound 0.1 µM, first compound 1 µM
[5] = second compound 0.316 µM, first compound 0.0316 µM
[6] = second compound 0.316 µM, first compound 0.1 µM
[7] = second compound 0.316 µM, first compound 0.316 µM
[8] = second compound 0.316 µM, first compound 1 µM
[9] = second compound 1 µM, first compound 0.0316 µM
[10] = second compound 1 µM, first compound 0.1 µM
[11] = second compound 1 µM, first compound 0.316 µM
[12] = second compound 1 µM, first compound 1 µM
[13] = second compound 3.16 µM, first compound 0.0316 µM
[14] = second compound 3.16 µM, first compound 0.1 µM
[15] = second compound 3.16 µM, first compound 0.316 µM
[16] = second compound 3.16 µM, first compound 1 µM
[17] = second compound 10 µM, first compound 0.0316 µM
[18] = second compound 10 µM, first compound 0.1 µM
[19] = second compound 10 µM, first compound 0.316 µM
[20] = second compound 10 µM, first compound 1 µM

CC(=O)c1c(C)c2cnc(Nc3ccc(N4CCNCC4)cn3)nc2n(C2CCCC2)c1=O + CC(C)NCC(C(=O)N1CCN(c2ncnc3c2C(C)CC3O)CC1)c1ccc(Cl)cc1
9.88 nM: IC50 (second compound 0.1 µM)
active: viability, T/C (second compound 10 µM, first compound 0.000949 µM) 9.94% | viability, T/C (second compound 10 µM, first compound 0.003 µM) 9.77% | viability, T/C (second compound 10 µM, first compound 0.00949 µM) 8.83% | viability, T/C (second compound 10 µM, first compound 0.03 µM) 8.26% | viability, T/C (second compound 10 µM, first compound 0.0949 µM) 10.6% | viability, T/C (second compound 10 µM, first compound 0.3 µM) 10.5%
inactive: viability, T/C (second compound 0.1 µM, first compound 0.000949 µM) 70.5% | viability, T/C (second compound 0.1 µM, first compound 0.003 µM) 62.3% | viability, T/C (second compound 0.1 µM, first compound 0.00949 µM) 50.6% | viability, T/C (second compound 0.1 µM, first compound 0.03 µM) 40.2% | viability, T/C (second compound 0.1 µM, first compound 0.0949 µM) 35.8% | viability, T/C (second compound 0.1 µM, first compound 0.3 µM) 34.2% | viability, T/C (second compound 0.316 µM, first compound 0.000949 µM) 36.3% | viability, T/C (second compound 0.316 µM, first compound 0.003 µM) 32.9% | viability, T/C (second compound 0.316 µM, first compound 0.00949 µM) 28% | viability, T/C (second compound 0.316 µM, first compound 0.03 µM) 25.6% | viability, T/C (second compound 0.316 µM, first compound 0.0949 µM) 23.9% | viability, T/C (second compound 0.316 µM, first compound 0.3 µM) 26.2% | viability, T/C (second compound 1 µM, first compound 0.000949 µM) 20.3% | viability, T/C (second compound 1 µM, first compound 0.003 µM) 18.3% | viability, T/C (second compound 1 µM, first compound 0.00949 µM) 17.6% | viability, T/C (second compound 1 µM, first compound 0.03 µM) 14.7% | viability, T/C (second compound 1 µM, first compound 0.0949 µM) 15.9% | viability, T/C (second compound 1 µM, first compound 0.3 µM) 18.5% | viability, T/C (second compound 3.16 µM, first compound 0.000949 µM) 16.5% | viability, T/C (second compound 3.16 µM, first compound 0.003 µM) 14.7% | viability, T/C (second compound 3.16 µM, first compound 0.00949 µM) 14.1% | viability, T/C (second compound 3.16 µM, first compound 0.03 µM) 15.6% | viability, T/C (second compound 3.16 µM, first compound 0.0949 µM) 13.4% | viability, T/C (second compound 3.16 µM, first compound 0.3 µM) 13.5%
< 0.949 nM: IC50 (second compound 0.316 µM) | IC50 (second compound 1 µM) | IC50 (second compound 3.16 µM) | IC50 (second compound 10 µM)

COc1c(OCCCN2CCOCC2)ccc2c3n(c(=NC(=O)c4cnc(N)nc4)nc12)CCN3 + CC(C)NCC(C(=O)N1CCN(c2ncnc3c2C(C)CC3O)CC1)c1ccc(Cl)cc1
< 3.16 nM: IC50 (second compound 0.316 µM) | IC50 (second compound 1 µM) | IC50 (second compound 3.16 µM) | IC50 (second compound 10 µM)
3.82 nM: IC50 (second compound 0.1 µM)
inactive: viability, T/C (second compound 0.1 µM, first compound 0.00316 µM) 53.7% | viability, T/C (second compound 0.1 µM, first compound 0.01 µM) 31.3% | viability, T/C [1] 12.1% | viability, T/C (second compound 0.316 µM, first compound 0.00316 µM) 29.5% | viability, T/C (second compound 0.316 µM, first compound 0.01 µM) 18.4% | viability, T/C [5] 9.72% | viability, T/C (second compound 1 µM, first compound 0.00316 µM) 17.3% | viability, T/C (second compound 1 µM, first compound 0.01 µM) 11% | viability, T/C (second compound 3.16 µM, first compound 0.00316 µM) 12.3% | viability, T/C (second compound 3.16 µM, first compound 0.01 µM) 9.35%
active: viability, T/C [2] 6.59% | viability, T/C [3] 5.28% | viability, T/C [4] 3.75% | viability, T/C [6] 7.09% | viability, T/C [7] 5.47% | viability, T/C [8] 3.33% | viability, T/C [9] 8.59% | viability, T/C [10] 6.92% | viability, T/C [11] 4.3% | viability, T/C [12] 2.76% | viability, T/C [13] 8.55% | viability, T/C [14] 6.85% | viability, T/C [15] 4.48% | viability, T/C [16] 2.41% | viability, T/C (second compound 10 µM, first compound 0.00316 µM) 6.56% | viability, T/C (second compound 10 µM, first compound 0.01 µM) 5.87% | viability, T/C [17] 5.36% | viability, T/C [18] 4.04% | viability, T/C [19] 2.89% | viability, T/C [20] 1.6%

Cc1nc(NC(=O)N2CCCC2C(N)=O)sc1-c1ccnc(C(C)(C)C(F)(F)F)c1 (stereo not given) + CC(C)NCC(C(=O)N1CCN(c2ncnc3c2C(C)CC3O)CC1)c1ccc(Cl)cc1
120 nM: IC50 (second compound 0.1 µM)
< 31.6 nM: IC50 (second compound 0.316 µM) | IC50 (second compound 1 µM) | IC50 (second compound 3.16 µM) | IC50 (second compound 10 µM)
inactive: viability, T/C [1] 67.1% | viability, T/C [2] 52.7% | viability, T/C [3] 35% | viability, T/C [4] 19.4% | viability, T/C [5] 33.5% | viability, T/C [6] 30.2% | viability, T/C [7] 22.5% | viability, T/C [8] 11.6% | viability, T/C [9] 16.4% | viability, T/C [10] 15.6% | viability, T/C [11] 13.8% | viability, T/C [13] 14.5% | viability, T/C [14] 11.2%
active: viability, T/C (second compound 0.1 µM, first compound 3.16 µM) 9% | viability, T/C (second compound 0.1 µM, first compound 10 µM) 5% | viability, T/C (second compound 0.316 µM, first compound 3.16 µM) 8.53% | viability, T/C (second compound 0.316 µM, first compound 10 µM) 4.14% | viability, T/C [12] 9.61% | viability, T/C (second compound 1 µM, first compound 3.16 µM) 7.02% | viability, T/C (second compound 1 µM, first compound 10 µM) 4.07% | viability, T/C [15] 7.81% | viability, T/C [16] 6.61% | viability, T/C (second compound 3.16 µM, first compound 3.16 µM) 6.22% | viability, T/C (second compound 3.16 µM, first compound 10 µM) 4.46% | viability, T/C [17] 7.89% | viability, T/C [18] 8.14% | viability, T/C [19] 5.69% | viability, T/C [20] 5.04% | viability, T/C (second compound 10 µM, first compound 3.16 µM) 3.63% | viability, T/C (second compound 10 µM, first compound 10 µM) 2.25%
